Results on four molecules are retold here after patent US20160375039A1, “COMPOUNDS FOR THE TREATMENT OF OBESITY AND METHODS OF USE THEREOF” (The Children's Medical Center Corporation, priority 2013, published 2016).

“Also recorded” adds a separate entry of the source.

The conditions of data set [1]: weight loss product rating; cited from earlier work.
The test system of data set [2] is leptin receptor deficient (db/db) mice. Put plainly: Withaferin A to leptin receptor deficient (db/db) mouse model of obesity. Format: in vivo. The conditions noted are these: 2 mg/kg once a day. The method, then:
To explore whether Withaferin A's effect is leptin dependent, Withaferin A (2 mg/kg, once a day, in 2Sμ1 DMSO) was administered to leptin receptor deficient (db/db) mouse model of obesity.

Data set [3] deals with HFD-fed obese mice. Put plainly: Leptin sensitivity: overnight food intake after acute Withaferin A and leptin injection, HFD-fed obese mice. Type of data set: in vivo, mouse. The method, then:
(§1) Therefore is it possible that Withaferin A exerts the anti-obesity effects through increasing the leptin sensitivity in the brains of the HFD-fed obese mice. To test this hypothesis, leptin was administered to Withaferin A or vehicle treated HFD-fed obese animals. To avoid any possible leptin sensitizing effect of weight loss or decreased food intake created by Withaferin A administration, leptin injections were carried out upon acute Withaferin A treatment. Lean and HFD-fed obese mice were divided into four groups: 1) DMSO+saline, 2) DMSO+leptin, 3) Withaferin A+saline, and 4) Withaferin A+leptin (n=6 per group). The mice were injected (i.p.) with 1.5 mg/kg Withaferin A or vehicle (DMSO) one hour before dark cycle (day zero). 24 hours later, the second and final injection of DMSO or Withaferin A was administered. 30 minutes prior to dark cycle, mice received a single i.p. injection of leptin (1 mg/kg for HFD mice, dissolved in saline; 5 mg/kg for lean mice), or saline. Over night food intakes were recorded (HFD, FIG. 4A; Chow FIG. 4B). […] In addition, HFD-fed obese mice were resistant to the food intake reducing effect of leptin unless they received Withaferin A (FIG. 4A).

Another data set has as its system lean mice. Put plainly: Leptin sensitivity: overnight food intake after acute Withaferin A and leptin injection, lean mice. Format: in vivo, mouse. The method, then: as §1
Another data set relates to HFD-fed mice. Briefly: Body composition by Dual-Emission X-ray Absorptiometry (DEXA). Type of data set: in vivo, mouse. The conditions noted are these: i.p. 2 mg/kg, two weeks. As for the experimental part:
To analyze the change in body composition during Withaferin A treatment (i.p. 2 mg/kg), lean mass and fat mass of mice with Dual-Emission X-ray Absorptiometry (DEXA) were measured.

The test system of data set [4] is HFD-fed obese C57Bl/6J mice. Briefly: Withaferin A daily i.p. to HFD-fed obese mice for three weeks: body weight, food intake, fasting blood glucose. Format: in vivo, mouse. The method, then:
To investigate whether Withaferin A can act as an anti-obesity drug by increasing leptin sensitivity and reducing appetite, C57Bl/6J mice were placed on a high fat diet (HFD; Research Diets, D12451, 45 kcal % fat) feeding for 16 weeks. After establishment of obesity and leptin resistance, mice were administered Withaferin A (at 2 mg/kg, in 25 μl DMSO, once per day) and vehicle (DMSO, 25 n1) with intraperitoneal (i.p.) injection. The animals had free access to food and water unless otherwise stated. In all experiments, three days prior to drug administration, the animals went through an acclimation period where they were given DMSO (25 n1) to reduce the effect of stress created by i.p. injection.
Following three days acclimation, mice were administered Withaferin A daily i.p. injections at 2 mg/kg for three weeks in 25 μl of DMSO as vehicle, whereas the control group received the same volume of DMSO. […] At day 21 of the experiment, the 6-hour fasting blood glucose of mice was measured.

Data set [5] deals with 10-week old lean mice on chow diet. Briefly: Withaferin A i.p. to lean mice on chow diet for three weeks. Type of data set: in vivo, mouse. The conditions noted are these: 2 mg/kg i.p. As for the experimental part:
Withaferin A was administered to 10-week old lean mice on chow diet at 2 mg/kg for three weeks by i.p. injections.

The test system of data set [6] is HFD-fed obese mice. Put plainly: Insulin Tolerance Test (ITT). Type of data set: in vivo, mouse. Particulars: 2 mg/kg i.p., day 16, insulin 1 IU/kg i.p. The method, then: (§2) In order to analyze the effect of Withaferin A on glucose homeostasis, we performed Glucose Tolerance Test (GTT) and Insulin Tolerance Test (ITT) after chronic i.p. Withaferin A treatment (2 mg/kg). For GTT, mice were fasted overnight following one week of Withaferin A treatment and received an i.p. injection of D-glucose (1 g/kg) in the morning. For ITT, after 16 days of Withaferin A treatment, mice were fasted for 6 hours (from 8 a.m. to 2 p.m.) and recombinant human insulin (1 IU/kg from Eli Lilly) was injected intraperitoneally. In both procedures, blood glucose was measured from tail vein blood at 0, 15, 30, 60, 90 and 120 minutes after injection.

Data set [7] relates to HFD-fed obese mice. Briefly: Glucose Tolerance Test (GTT). Format: in vivo, mouse. The conditions noted are these: 2 mg/kg i.p., one week, D-glucose 1 g/kg i.p., vs vehicle. The method, then: as §2

Regarding `[Cr]` [Chromium], in data set [1], the Safety result is given as “Likely safe”.

Turning to `CC1=C(CO)C(=O)O[C@@H]([C@@H](C)[C@H]2CC[C@H]3[C@@H]4C[C@H]5O[C@]56[C@@H](O)C=CC(=O)[C@]6(C)[C@H]4CC[C@]23C)C1` [Withaferin A], the body weight result in data set [2] is recorded as “continued to increase similar to the vehicle treated group”; in data set [4] (2 mg/kg i.p. once per day, three weeks, vs DMSO vehicle), “significantly decreased”; in data set [5] (three weeks), “failed to induce bodyweight loss”. For the same molecule, the food intake result in data set [2] is “did not show a decrease”; in data set [4] (2 mg/kg i.p. daily, three days average within first week) it was “significantly decreased”; in data set [5] (three weeks) it was “failed to induce bodyweight loss or suppress food intake”. In addition, the blood glucose levels entry in data set [2] (end of 3-week treatment) is reported as “tendency to decrease but did not reach statistically significant levels”; in data set [5] (after 3 weeks of treatment), “not altered”. Moreover, the “anorectic action of leptin” value is listed as “significantly potentiated” in the data set on HFD-fed obese mice [3] (HFD mice, Withaferin A 1.5 mg/kg i.p. before leptin 1 mg/kg) and “significantly potentiated” with lean mice (lean mice, Withaferin A 1.5 mg/kg i.p. before leptin 5 mg/kg). Besides, the “decrease in food intake upon leptin injection” value in the data set with HFD-fed obese mice [3] (HFD-fed obese mice, Withaferin A 1.5 mg/kg i.p. + leptin 1 mg/kg i.p., compared to vehicle treated non-leptin group) is given as 75%; with lean mice (lean mice, Withaferin A 1.5 mg/kg i.p. + leptin 5 mg/kg i.p., compared to vehicle treated non-leptin group) it was “approximately 50%”. Besides, the overnight food intake result in the data set with HFD-fed obese mice [3] (HFD-fed obese mice, Withaferin A 1.5 mg/kg i.p. alone, no exogenous leptin) is listed as “decreased the food intake”; with lean mice (lean mice, Withaferin A 1.5 mg/kg i.p. two injections, without leptin) it was “did not change”. In addition, the fat percentage entry in the data set on HFD-fed mice was “decreased significantly”. In addition, the lean mass entry in the data set with HFD-fed mice is given as “did not change”. Moreover, in data set [4] (2 mg/kg i.p. daily, day 21, 2 mg/kg), the “6-hour fasting blood glucose” value is “decreases blood glucose; also recorded: robust decrease”. In addition, the “insulin sensitivity (ITT)” value in the data set on HFD-fed obese mice [6] is recorded as “improved insulin sensitivity”. Also, the “glucose homeostasis (AUC of GTT)” value in the data set with HFD-fed obese mice [7] is “significantly improved”.

With Conjugated linoleic acid, in data set [1], the Effectiveness result is “Possibly” and the Safety result was “Possibly safe”.

In the case of “leptin: peptide hormone, afferent signal in a negative feedback loop regulating food intake and body weight”, the “food intake reducing effect of leptin” value in the data set with HFD-fed obese mice [3] (HFD-fed obese mice without Withaferin A, leptin 1 mg/kg single i.p. injection) is recorded as “resistant”. In the data set with lean mice (vehicle treated lean mice, leptin 5 mg/kg single i.p. injection), the overnight food intake result was “suppressed food intake”.
